Measurements as given in ChEMBL document CHEMBL3808272, “Discovery of (S)-4-isobutyloxazolidin-2-one as a novel leucyl-tRNA synthetase (LRS)-targeted mTORC1 inhibitor” (Bioorg Med Chem Lett, 2016).
One block for each molecule: values may come before it. Activity calls are given as the source filed them. The calls are words filed in the database; no cut-off is given here.

Experiments:
[1] = target: Leucine--tRNA ligase, cytoplasmic (Homo sapiens) (UniProt Q9P2J5); experiment: Inhibition of leucyl-tRNA synthetase (unknown origin) expressed in HEK293 cells assessed as inhibition of leucine-induced mTORC1-mediated S6 kinase phosphorylation pre-treated with compound followed by leucine stimulation for 10 mins by immunoblotting analysis; assay type: cell-based
Leucine--tRNA ligase, cytoplasmic (Homo sapiens), sequence (Q9P2J5 whole entry, looked up): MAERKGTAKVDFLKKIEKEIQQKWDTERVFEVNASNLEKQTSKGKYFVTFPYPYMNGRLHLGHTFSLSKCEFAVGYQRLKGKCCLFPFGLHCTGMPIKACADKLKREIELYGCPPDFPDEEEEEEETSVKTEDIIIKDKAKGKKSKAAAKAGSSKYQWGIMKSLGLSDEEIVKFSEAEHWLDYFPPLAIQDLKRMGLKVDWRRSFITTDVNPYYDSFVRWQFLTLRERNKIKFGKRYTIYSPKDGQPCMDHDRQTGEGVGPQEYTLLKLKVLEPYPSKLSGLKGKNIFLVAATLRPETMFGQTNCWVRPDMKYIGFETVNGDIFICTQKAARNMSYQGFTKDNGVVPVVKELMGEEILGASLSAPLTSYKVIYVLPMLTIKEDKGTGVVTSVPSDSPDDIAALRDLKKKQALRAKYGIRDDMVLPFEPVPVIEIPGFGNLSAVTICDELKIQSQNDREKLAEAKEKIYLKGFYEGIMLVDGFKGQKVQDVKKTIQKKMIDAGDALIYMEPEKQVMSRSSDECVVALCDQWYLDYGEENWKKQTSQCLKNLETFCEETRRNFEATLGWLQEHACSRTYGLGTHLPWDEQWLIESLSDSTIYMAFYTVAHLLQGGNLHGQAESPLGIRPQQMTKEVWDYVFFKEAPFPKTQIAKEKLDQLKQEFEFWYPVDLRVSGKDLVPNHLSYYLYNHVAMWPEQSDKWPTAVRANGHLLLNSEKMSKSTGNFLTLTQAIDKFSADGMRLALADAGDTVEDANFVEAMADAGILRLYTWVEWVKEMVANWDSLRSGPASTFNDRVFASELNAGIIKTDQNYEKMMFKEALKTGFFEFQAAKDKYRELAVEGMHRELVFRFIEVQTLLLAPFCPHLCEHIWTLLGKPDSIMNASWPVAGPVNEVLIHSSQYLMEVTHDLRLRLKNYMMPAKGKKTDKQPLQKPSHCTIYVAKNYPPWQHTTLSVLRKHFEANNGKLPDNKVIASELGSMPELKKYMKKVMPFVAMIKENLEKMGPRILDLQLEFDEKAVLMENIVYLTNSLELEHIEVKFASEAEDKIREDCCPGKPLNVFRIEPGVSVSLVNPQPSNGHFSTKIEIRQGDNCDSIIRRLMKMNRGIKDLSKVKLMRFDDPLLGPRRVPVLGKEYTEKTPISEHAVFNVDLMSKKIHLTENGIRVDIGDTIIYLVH

HEK293 [2] = experiment: Inhibition of mTORC2 (unknown origin) expressed in HEK293 cells assessed as inhibition of leucine-induced Akt S473 phosphorylation pre-treated at 100 nM to 800 uM followed by leucine stimulation for 10 mins by immunoblotting analysis; assay type: cell-based; settings: Homo sapiens
HEK293 [3] = experiment: Effect on cellular Akt level in HEK293 cells pre-treated at 100 nM to 800 uM followed by leucine stimulation for 10 mins by immunoblotting analysis; assay type: cell-based; settings: human
[4] = target: Leucine--tRNA ligase, cytoplasmic (Homo sapiens) (UniProt Q9P2J5); experiment: Inhibition of leucyl-tRNA synthetase (unknown origin) expressed in HEK293 cells assessed as inhibition of leucine-induced mTORC1-mediated S6 kinase phosphorylation pre-treated at 1 mM followed by leucine stimulation for 10 mins by immunoblotting analysis; assay type: cell-based
[5] = target: Leucine--tRNA ligase, cytoplasmic (Homo sapiens) (UniProt Q9P2J5); experiment: Inhibition of leucyl-tRNA synthetase (unknown origin) catalytic activity assessed as aminoleucylation
SW-620 [6] = experiment: Cytotoxicity against rapamycin resistant human SW620 cells at 1 uM by CellTox green fluorescent dye based assay; assay type: functional, cell-based
HEK293 [7] = experiment: Effect on cellular Akt level in HEK293 cells pre-treated at 100 nM followed by leucine stimulation for 10 mins by immunoblotting analysis; assay type: ADME, cell-based; settings: human, hek293, 0.1 µM
[8] = target: Leucine--tRNA ligase, cytoplasmic (Homo sapiens) (UniProt Q9P2J5); experiment: Inhibition of leucyl-tRNA synthetase (unknown origin) expressed in HEK293 cells assessed as inhibition of leucine-induced mTORC1-mediated S6 kinase phosphorylation pre-treated at 100 nM followed by leucine stimulation for 10 mins by immunoblotting analysis; assay type: cell-based
HEK293 [9] = experiment: Inhibition of mTORC2 (unknown origin) expressed in HEK293 cells assessed as inhibition of leucine-induced Akt S473 phosphorylation pre-treated at 100 nM followed by leucine stimulation for 10 mins by immunoblotting analysis; assay type: cell-based; settings: Homo sapiens
HEK293 [10] = experiment: Inhibition of mTORC2 (unknown origin) expressed in HEK293 cells assessed as inhibition of leucine-induced Akt S473 phosphorylation pre-treated at 800 uM followed by leucine stimulation for 10 mins by immunoblotting analysis; assay type: cell-based; settings: Homo sapiens
[11] = target: Leucine--tRNA ligase, cytoplasmic (Homo sapiens) (UniProt Q9P2J5); experiment: Inhibition of leucyl-tRNA synthetase (unknown origin) expressed in HEK293 cells assessed as inhibition of leucine-induced mTORC1-mediated S6 kinase phosphorylation pre-treated at 800 uM followed by leucine stimulation for 10 mins by immunoblotting analysis; assay type: cell-based
SW-620 [12] = experiment: Cytotoxicity against rapamycin resistant human SW620 cells at 400 uM to 4 mM by CellTox green fluorescent dye based assay; assay type: functional, cell-based
HEK293 [13] = experiment: Effect on cellular Akt level in HEK293 cells pre-treated at 800 uM followed by leucine stimulation for 10 mins by immunoblotting analysis; assay type: ADME, cell-based; settings: human, hek293, 800 µM
SW-620 [14] = experiment: Cytotoxicity against rapamycin resistant human SW620 cells by CellTox green fluorescent dye based assay; assay type: functional, cell-based

inhibition [1]: Dose-dependent effect
inhibition [4]: Active
Structure (SMILES): CC(C)C[C@H](N)CNO
inhibition (HEK293 [2]): inactive
Activity (HEK293 [3]): Non-toxic

inhibition [5]: inactive
inhibition [1]: Dose-dependent effect
inhibition [4]: Active
Structure (SMILES): CC(C)Cc1ncc[nH]1
inhibition (HEK293 [2]): inactive
Activity (HEK293 [3]): Non-toxic

inhibition [4]: inactive
Structure (SMILES): CC(C)C[C@H](N)CCO

inhibition [4]: inactive
Structure (SMILES): CC(C)C[C@H](N)CNS(C)(=O)=O

inhibition [5]: inactive
inhibition [1]: Dose-dependent effect
inhibition [4]: Active
Structure (SMILES): CC(C)C[C@H]1CNC(=O)N1
inhibition (HEK293 [2]): inactive
Activity (HEK293 [3]): Non-toxic
Activity (SW-620 [14]): Dose-dependent effect

inhibition [4]: inactive
Structure (SMILES): CC(C)C[C@H](N)/C=N/O

Second part, the molecule before the results:

Structure (SMILES): CC(C)C[C@H](N)[C@@H](C)O
inhibition [4]: inactive

Structure (SMILES): COC[C@@H](N)CC(C)C
inhibition [4]: inactive

Structure (SMILES): CC(C)C[C@H](N)COS(C)(=O)=O
inhibition [4]: inactive

Structure (SMILES): CO[C@H]1C[C@@H]2CC[C@@H](C)[C@@](O)(O2)C(=O)C(=O)N2CCCC[C@H]2C(=O)O[C@H]([C@H](C)C[C@@H]2CC[C@@H](O)[C@H](OC)C2)CC(=O)[C@H](C)/C=C(\C)[C@@H](O)[C@@H](OC)C(=O)[C@H](C)C[C@H](C)/C=C/C=C/C=C/1C [SIROLIMUS]
Activity (SW-620 [6]): inactive
Activity (HEK293 [7]): Non-toxic
inhibition [8]: Active
inhibition (HEK293 [9]): inactive

Structure (SMILES): CC(=O)NC[C@@H](N)CC(C)C
inhibition [4]: inactive

Structure (SMILES): CC(C)C[C@H]1COC(=O)N1
inhibition [1]: Dose-dependent effect
inhibition (HEK293 [2]): inactive
Activity (HEK293 [3]): Non-toxic
inhibition [4]: Active

Structure (SMILES): CC(C)C[C@H](N)[C@H](C)O
inhibition [4]: inactive

Structure (SMILES): CC(C)C[C@H](N)CCN
inhibition [4]: inactive

Structure (SMILES): CC(C)C[C@H](N)CO
inhibition (HEK293 [10]): inactive
inhibition [11]: Active
inhibition [4]: Active
Activity (SW-620 [12]): Active
Activity (HEK293 [13]): Non-toxic

Structure (SMILES): CC(C)C[C@H](N)CN
inhibition [4]: inactive
